The values that follow come from article PMC9896953, “Structural basis of unisite catalysis of bacterial F0F1-ATPase” (PNAS Nexus, 2022).

The target of experiment [1] is T1, wt-F0F1 (wild-type F0F1-ATPase / ATP synthase) (Bacillus sp. PS3, UniProt P07677+P07678+P09219).
T1 construct: gene atpD; holo complex α3β3γ1ε1δ1a1b2c10 from pTR19-ASDS, expressed in E. coli DK8, DDM-solubilised, Ni-NTA purified, nucleotide-depleted; with ATP synthase gamma chain; ATP synthase epsilon chain; ATP synthase subunit delta; ATP synthase subunit a; ATP synthase subunit b; ATP synthase subunit c
The experiment can be described thus: cryo-EM structure. In kind it is binding.

In experiment [2] the target is T2, ΔεCT-F0F1 (F0F1 with C-terminal-truncated ε subunit) (Bacillus sp. PS3, UniProt P07677+P09219).
T2 construct: gene atpD; holo complex, ε lacks residues 83-133; derived from pTR19-ASDS, expressed in E. coli, DDM-solubilised, Ni-NTA purified, nucleotide-depleted; PS3 origin is judgement; with ATP synthase gamma chain; ATP synthase epsilon chain; ATP synthase subunit delta; ATP synthase subunit a; ATP synthase subunit b; ATP synthase subunit c
Nature of the experiment: cryo-EM structure. In kind it is binding. As to conditions: unisite conditions (substoichiometric ATP with PEP / pyruvate kinase), 25 °C, pH 8.0; catalytic site of closed βTP.

As for `Nc1ncnc2c1ncn2[C@@H]1O[C@H](COP(=O)(O)OP(=O)(O)OP(O)(O)=S)[C@@H](O)[C@H]1O` [ATPγS], the cryo-EM structure result in experiment [1] (4 mM ATPγS, ε-down form: catalytic βE and βTP and noncatalytic α sites, also bound in the retracted ε subunit (second site), ε-up form: βE) is ““open in βE with ATPγS,” “closed in βTP with ATPγS,” and “closed in βDP with ADP”.
As for `Nc1ncnc2c1ncn2[C@@H]1O[C@H](COP(=O)(O)OP(=O)(O)O)[C@@H](O)[C@H]1O` [ADP], the cryo-EM structure entry is ““closed in βTP with ADP,” and “open in βDP with ADP”” in experiment [1] (sample exposed to 4 mM ATPγS, catalytic βDP (ε down), βTP and βDP (ε up)); “revealed a nucleotide density due to ADP at the catalytic site in βTP” in experiment [2].
